According to patent US9518052B2, “Pyrazolopyridines and pyrazolopyrimidines” (Pfizer Inc., priority 2014, dated 2016):
Counter-ions that a name gives are not always drawn.

How the values were obtained:
Assay type in all cases: biochemical
Conditions in all cases: Caliper assay at 1 mM ATP
JAK2 = JAK2 (Homo sapiens (Human), UniProt O60674); test: JAK Caliper Enzyme Assay at 1 mM ATP (JAK2)
TYK2 = TYK2 (Homo sapiens (Human), UniProt P29597); test: JAK Caliper Enzyme Assay at 1 mM ATP (TYK2)
JAK1 = JAK1 (Homo sapiens (Human), UniProt P23458); test: JAK Caliper Enzyme Assay at 1 mM ATP (JAK1)
JAK1, sequence (P23458 whole entry, species assumed): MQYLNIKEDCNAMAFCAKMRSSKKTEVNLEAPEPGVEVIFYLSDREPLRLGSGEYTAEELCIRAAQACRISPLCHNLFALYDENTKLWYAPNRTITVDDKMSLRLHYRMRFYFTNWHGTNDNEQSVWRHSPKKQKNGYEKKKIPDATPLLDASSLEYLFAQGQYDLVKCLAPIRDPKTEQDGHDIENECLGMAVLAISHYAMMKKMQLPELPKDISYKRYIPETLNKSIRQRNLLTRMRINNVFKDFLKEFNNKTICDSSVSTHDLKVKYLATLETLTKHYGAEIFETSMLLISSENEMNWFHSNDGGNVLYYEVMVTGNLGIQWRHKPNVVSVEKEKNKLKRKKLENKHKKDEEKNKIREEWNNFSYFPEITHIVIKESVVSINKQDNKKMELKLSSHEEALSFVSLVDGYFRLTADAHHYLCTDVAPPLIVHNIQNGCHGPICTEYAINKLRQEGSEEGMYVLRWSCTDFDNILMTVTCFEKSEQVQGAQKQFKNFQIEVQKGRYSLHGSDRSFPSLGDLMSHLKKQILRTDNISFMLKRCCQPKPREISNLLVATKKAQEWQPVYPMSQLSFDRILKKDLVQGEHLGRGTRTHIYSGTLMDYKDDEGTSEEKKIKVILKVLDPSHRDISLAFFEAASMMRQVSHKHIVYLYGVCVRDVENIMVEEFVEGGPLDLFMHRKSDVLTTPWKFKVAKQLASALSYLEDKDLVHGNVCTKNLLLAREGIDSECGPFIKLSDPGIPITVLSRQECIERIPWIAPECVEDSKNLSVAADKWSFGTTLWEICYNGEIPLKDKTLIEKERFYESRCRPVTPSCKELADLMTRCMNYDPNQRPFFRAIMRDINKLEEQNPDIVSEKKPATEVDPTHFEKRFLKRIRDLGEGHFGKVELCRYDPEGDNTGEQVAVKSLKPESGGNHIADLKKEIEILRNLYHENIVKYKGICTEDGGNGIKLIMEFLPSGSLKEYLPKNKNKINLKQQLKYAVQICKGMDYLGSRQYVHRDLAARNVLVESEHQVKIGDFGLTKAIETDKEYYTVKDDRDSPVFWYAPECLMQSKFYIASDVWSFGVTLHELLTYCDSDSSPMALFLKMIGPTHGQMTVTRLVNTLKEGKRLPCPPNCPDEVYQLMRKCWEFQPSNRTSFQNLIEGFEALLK

JAK3 = JAK3 (Homo sapiens (Human), UniProt P52333); test: JAK Caliper Enzyme Assay at 1 mM ATP (JAK3)
JAK3, sequence (P52333 whole entry, species assumed): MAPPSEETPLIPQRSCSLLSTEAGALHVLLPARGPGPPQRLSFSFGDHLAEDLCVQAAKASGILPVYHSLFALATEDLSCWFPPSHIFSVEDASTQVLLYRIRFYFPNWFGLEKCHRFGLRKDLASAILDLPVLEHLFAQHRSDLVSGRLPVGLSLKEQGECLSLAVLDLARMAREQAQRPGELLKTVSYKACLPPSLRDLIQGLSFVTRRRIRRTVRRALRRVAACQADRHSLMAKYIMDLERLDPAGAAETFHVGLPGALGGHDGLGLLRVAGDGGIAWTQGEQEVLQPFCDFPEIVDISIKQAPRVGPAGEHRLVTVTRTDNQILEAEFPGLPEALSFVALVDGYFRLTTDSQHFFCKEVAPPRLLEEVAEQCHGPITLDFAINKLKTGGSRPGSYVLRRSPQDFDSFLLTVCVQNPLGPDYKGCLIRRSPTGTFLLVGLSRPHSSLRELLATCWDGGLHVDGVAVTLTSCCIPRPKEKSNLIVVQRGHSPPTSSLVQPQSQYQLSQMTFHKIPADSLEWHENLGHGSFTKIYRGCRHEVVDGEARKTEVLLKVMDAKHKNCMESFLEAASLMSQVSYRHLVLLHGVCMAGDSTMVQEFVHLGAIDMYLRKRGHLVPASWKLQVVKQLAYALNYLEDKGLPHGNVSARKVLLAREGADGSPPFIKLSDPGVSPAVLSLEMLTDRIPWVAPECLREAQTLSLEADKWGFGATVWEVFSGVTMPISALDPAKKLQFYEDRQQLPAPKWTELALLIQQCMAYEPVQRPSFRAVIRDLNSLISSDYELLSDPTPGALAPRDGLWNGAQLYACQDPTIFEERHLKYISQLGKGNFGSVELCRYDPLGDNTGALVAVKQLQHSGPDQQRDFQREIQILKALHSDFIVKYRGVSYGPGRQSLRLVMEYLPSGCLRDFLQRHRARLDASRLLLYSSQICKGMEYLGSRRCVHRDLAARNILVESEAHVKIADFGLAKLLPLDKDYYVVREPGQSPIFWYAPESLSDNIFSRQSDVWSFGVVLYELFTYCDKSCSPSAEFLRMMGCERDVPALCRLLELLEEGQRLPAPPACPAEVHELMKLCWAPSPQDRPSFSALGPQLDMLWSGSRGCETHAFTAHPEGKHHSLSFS

TYK2, sequence (P29597 whole entry, species assumed): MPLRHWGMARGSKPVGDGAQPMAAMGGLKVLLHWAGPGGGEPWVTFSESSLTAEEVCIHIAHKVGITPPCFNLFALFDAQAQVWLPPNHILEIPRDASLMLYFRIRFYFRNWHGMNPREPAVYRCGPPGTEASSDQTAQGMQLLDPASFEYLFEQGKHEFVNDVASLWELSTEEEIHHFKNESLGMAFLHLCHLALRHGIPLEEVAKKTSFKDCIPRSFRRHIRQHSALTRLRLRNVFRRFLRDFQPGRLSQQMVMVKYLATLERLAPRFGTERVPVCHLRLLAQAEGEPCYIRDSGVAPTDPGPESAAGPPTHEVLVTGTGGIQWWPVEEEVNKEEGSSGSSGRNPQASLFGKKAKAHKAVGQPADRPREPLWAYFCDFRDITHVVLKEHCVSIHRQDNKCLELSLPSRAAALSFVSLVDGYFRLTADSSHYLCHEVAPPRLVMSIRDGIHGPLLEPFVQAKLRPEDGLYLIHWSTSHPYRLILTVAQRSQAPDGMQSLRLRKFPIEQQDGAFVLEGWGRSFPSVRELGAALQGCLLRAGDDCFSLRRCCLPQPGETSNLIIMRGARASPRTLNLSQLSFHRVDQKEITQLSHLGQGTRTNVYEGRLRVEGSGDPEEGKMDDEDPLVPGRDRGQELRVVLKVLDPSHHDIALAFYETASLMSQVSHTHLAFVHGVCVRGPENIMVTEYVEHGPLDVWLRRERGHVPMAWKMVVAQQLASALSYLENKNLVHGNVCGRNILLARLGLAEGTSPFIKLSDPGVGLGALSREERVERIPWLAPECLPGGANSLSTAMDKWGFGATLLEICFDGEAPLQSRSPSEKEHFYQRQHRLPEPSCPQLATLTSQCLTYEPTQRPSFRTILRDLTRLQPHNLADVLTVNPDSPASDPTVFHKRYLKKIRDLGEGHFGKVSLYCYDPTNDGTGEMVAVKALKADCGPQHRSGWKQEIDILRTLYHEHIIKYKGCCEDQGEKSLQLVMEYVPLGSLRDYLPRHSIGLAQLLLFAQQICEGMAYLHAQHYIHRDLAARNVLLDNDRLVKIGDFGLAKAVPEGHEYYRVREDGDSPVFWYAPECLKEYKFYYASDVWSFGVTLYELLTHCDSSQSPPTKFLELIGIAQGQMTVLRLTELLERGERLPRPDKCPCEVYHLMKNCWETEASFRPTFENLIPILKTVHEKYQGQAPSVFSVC
JAK2, sequence (O60674 whole entry, species assumed): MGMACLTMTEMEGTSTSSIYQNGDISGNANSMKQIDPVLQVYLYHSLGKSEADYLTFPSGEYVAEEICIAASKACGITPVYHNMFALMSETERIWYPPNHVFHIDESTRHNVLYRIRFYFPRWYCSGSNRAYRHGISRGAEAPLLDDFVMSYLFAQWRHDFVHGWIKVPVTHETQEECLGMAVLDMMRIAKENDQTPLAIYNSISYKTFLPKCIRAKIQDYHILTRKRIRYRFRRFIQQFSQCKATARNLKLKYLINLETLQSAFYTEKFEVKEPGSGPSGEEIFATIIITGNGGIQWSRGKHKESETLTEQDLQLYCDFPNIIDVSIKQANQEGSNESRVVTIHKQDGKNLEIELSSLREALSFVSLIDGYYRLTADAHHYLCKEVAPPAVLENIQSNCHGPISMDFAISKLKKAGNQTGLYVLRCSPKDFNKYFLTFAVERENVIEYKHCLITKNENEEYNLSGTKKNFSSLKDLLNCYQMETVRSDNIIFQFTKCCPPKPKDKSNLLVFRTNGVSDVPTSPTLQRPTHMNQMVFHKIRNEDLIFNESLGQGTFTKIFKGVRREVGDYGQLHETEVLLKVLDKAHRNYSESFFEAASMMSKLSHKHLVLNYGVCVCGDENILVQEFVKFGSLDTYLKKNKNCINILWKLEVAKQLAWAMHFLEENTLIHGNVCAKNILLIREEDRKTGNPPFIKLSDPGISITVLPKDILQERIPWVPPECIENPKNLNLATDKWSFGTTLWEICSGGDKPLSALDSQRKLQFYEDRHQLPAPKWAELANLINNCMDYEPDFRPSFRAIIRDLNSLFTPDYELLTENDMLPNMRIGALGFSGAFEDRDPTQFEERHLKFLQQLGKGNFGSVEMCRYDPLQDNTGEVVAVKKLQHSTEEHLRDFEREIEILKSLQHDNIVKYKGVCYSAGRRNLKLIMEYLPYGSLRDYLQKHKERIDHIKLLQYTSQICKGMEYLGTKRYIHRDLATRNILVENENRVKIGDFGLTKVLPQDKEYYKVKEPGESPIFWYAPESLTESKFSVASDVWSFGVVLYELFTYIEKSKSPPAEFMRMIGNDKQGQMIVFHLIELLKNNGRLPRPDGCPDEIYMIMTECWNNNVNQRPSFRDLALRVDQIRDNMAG

Row | SMILES | IC50 (JAK2) | IC50 (TYK2) | IC50 (JAK1) | IC50 (JAK3)
1 | CCc1cc(O)c(F)cc1-c1cc2[nH]nc(C(=O)NC)c2c(N[C@H](C)c2ccccc2N(C)S(C)(=O)=O)n1 [Example 38, 6-(2-Ethyl-5-fluoro-4-hydroxyphenyl)-N-methyl-4-{[(1R)-1-{2-[methyl(methylsulfonyl)amino]phenyl}ethyl]amino}-1H-pyrazolo[4,3-c]pyridine-3-carboxamide] | 25 nM | 17.8 nM | 4 nM | 122 nM
2 | CN(c1ccccc1CNCc1nc(-c2cc(F)c(O)cc2CC(F)(F)F)cc2[nH]ncc12)S(C)(=O)=O [Example 149] | 14.5 nM | 764 nM | 2.7 nM | 22.7 nM
3 | CCc1cc(O)ccc1-c1cc2[nH]ncc2c(N2CCc3c(cccc3NS(C)(=O)=O)C2)n1 [Example 123, N-{2-[6-(2-ethyl-4-hydroxyphenyl)-1H-pyrazolo[4,3-c]pyridin-4-yl]-1,2,3,4-tetrahydroisoquinolin-5-yl}methanesulfonamide formate] | 4.5 nM | 82.1 nM | 3.3 nM | 9.5 nM
4 | CNC(=O)c1n[nH]c2cc(-c3cc(F)c(O)cc3CC(F)(F)F)nc(NCc3ccccc3N(C)S(=O)(=O)c3cccc(O)c3)c12 [Example 32, 6-[5-Fluoro-4-hydroxy-2-(2,2,2-trifluoroethyl)phenyl]-4-[(2-{[(3-hydroxyphenyl)sulfonyl](methyl)amino}benzyl)amino]-N-methyl-1H-pyrazolo[4,3-c]pyridine-3-carboxamide] | 277 nM | 373 nM | 60.4 nM | 839 nM
5 | CC(CO)CNc1nc(-c2cc(F)c(O)cc2CC(F)(F)F)nc2[nH]nc(-c3nc4c([nH]3)CCN(Cc3ccccc3)C4)c12 (stereo not shown) [Example 173, 4-(3-(5-Benzyl-4,5,6,7-tetrahydro-1H-imidazo[4,5-c]pyridin-2-yl)-4-((3-hydroxy-2-methylpropyl)amino)-1H-pyrazolo[3,4-d]pyrimidin-6-yl)-2-fluoro-5-(2,2,2-trifluoroethyl)phenol] | 50.3 nM | 180 nM | 9.3 nM | 134 nM
6 | CCN(c1ccc(O)cc1CNc1nc(-c2cc(F)c(O)cc2CC(F)(F)F)cc2[nH]nc(C(=O)NC)c12)S(C)(=O)=O [Example 34, 4-({2-[ethyl(methyl-sulfonyl)amino]-5-hydroxybenzyl}amino)-6-[5-fluoro-4-hydroxy-2-(2,2,2-trifluoroethyl)phenyl]-N-methyl-1H-pyrazolo[4,3-c]pyridine-3-carboxamide] | 27.8 nM | 24.6 nM | 5.1 nM | 98.4 nM
7 | CNC(=O)c1n[nH]c2cc(-c3cc(F)c(O)cc3CC(F)(F)F)nc(NCc3cc(Cl)ccc3N(C)S(C)(=O)=O)c12 [Example 15, 4-({5-chloro-2-[methyl(methyl-sulfonyl)amino]benzyl}amino)-6-[5-fluoro-4-hydroxy-2-(2,2,2-trifluoroethyl)phenyl]-N-methyl-1H-pyrazolo[4,3-c]pyridine-3-carboxamide] | 55 nM | 618 nM | 13.6 nM | 342 nM
8 | CCN(c1ccccc1CNc1nc(-c2cc(F)c(O)cc2CC(F)(F)F)cc2[nH]nc(C(N)=O)c12)S(C)(=O)=O [Example 90, 4-({2-[ethyl(methylsulfonyl)amino]benzyl}amino)-6-[5-fluoro-4-hydroxy-2-(2,2,2-trifluoroethyl)-phenyl]-1H-pyrazolo[4,3-c]pyridine-3-carboxamide] | 18.1 nM | 23.2 nM | 2.7 nM | 77.1 nM
9 | CCN(c1nccnc1CNc1nc(-c2cc(F)c(O)cc2CC(F)(F)F)cc2[nH]nc(C(N)=O)c12)S(C)(=O)=O [Example 80, 4-[({3-[ethyl(methylsulfonyl)amino]pyrazin-2-yl}methyl)amino]-6-[5-fluoro-4-hydroxy-2-(2,2,2-trifluoroethyl)phenyl]-1H-pyrazolo[4,3-c]pyridine-3-carboxamide] | 16.2 nM | 167 nM | 2.9 nM | 49.2 nM
10 | Cc1ccc(S(=O)(=O)N(C)c2ccccc2CNc2nc(-c3cc(F)c(O)cc3CC(F)(F)F)cc3[nH]nc(C(N)=O)c23)cn1 [Example 70, 6-[5-fluoro-4-hydroxy-2-(2,2,2-trifluoroethyl)phenyl]-4-[(2-{methyl[(6-methylpyridin-3-yl)sulfonyl]amino}benzyl)amino]-1H-pyrazolo[4,3-c]pyridine-3-carboxamide] | 52.4 nM | 79.4 nM | 12 nM | 208 nM
11 | CNC(=O)c1n[nH]c2cc(-c3cc(F)c(O)cc3CC(F)(F)F)nc(NCc3ccccc3N(C)S(=O)(=O)c3cccnc3)c12 [Example 68, 6-[5-fluoro-4-hydroxy-2-(2,2,2-trifluoroethyl)phenyl]-N-methyl-4-({2-[methyl(pyridin-3-ylsulfonyl)amino]-benzyl}amino)-1H-pyrazolo[4,3-c]pyridine-3-carboxamide] | 72.7 nM | 72.3 nM | 14.2 nM | 253 nM
12 | CCN(c1ccc(O)cc1CNc1nc(-c2cc(F)c(O)cc2CC(F)(F)F)cc2[nH]nc(C(=O)NC)c12)S(=O)(=O)c1ccccc1 [Example 36, 4-({2-[ethyl(phenyl-sulfonyl)amino]-5-hydroxybenzyl}amino)-6-[5-fluoro-4-hydroxy-2-(2,2,2-trifluoroethyl)phenyl]-N-methyl-1H-pyrazolo[4,3-c]pyridine-3-carboxamide] | 401 nM | 364 nM | 75 nM | 1230 nM
13 | CCN(c1ccc(F)cc1CNc1nc(-c2cc(F)c(O)cc2CC(F)(F)F)cc2[nH]nc(C(N)=O)c12)S(C)(=O)=O [Example 83, 4-((2-(N-ethylmethylsulfonamido)-5-fluorobenzyl)amino)-6-(5-fluoro-4-hydroxy-2-(2,2,2-trifluoro-ethyl)phenyl)-1H-pyrazolo[4,3-c]pyridine-3-carboxamide] | 63.3 nM | 139 nM | 12.1 nM | 201 nM
14 | CN(c1ccccc1CNc1nc(-c2cc(F)c(O)cc2CC(F)(F)F)cc2[nH]nc(C(N)=O)c12)S(=O)(=O)c1cccnc1 [Example 61, 6-[5-fluoro-4-hydroxy-2-(2,2,2-trifluoroethyl)phenyl]-4-({2-[methyl(pyridin-3-ylsulfonyl)amino]benzyl}amino)-1H-pyrazolo[4,3-c]pyridine-3-carboxamide] | 30.2 nM | 52.3 nM | 7.3 nM | 110 nM
15 | CCc1cc(O)c(F)cc1-c1cc2[nH]nc(C(=O)NC)c2c(NCc2c(F)cccc2N(C)S(C)(=O)=O)n1 [Example 8, 6-(2-ethyl-5-fluoro-4-hydroxyphenyl)-4-({2-fluoro-6-[methyl(methyl-sulfonyl)amino]benzyl}amino)-N-methyl-1H-pyrazolo[4,3-c]pyridine-3-carboxamide] | 7.5 nM | 5.7 nM | 1.7 nM | 33.8 nM

Continued, values first:

Row | IC50 (JAK2) | IC50 (TYK2) | IC50 (JAK1) | IC50 (JAK3) | SMILES
16 | 2.1 nM | 4.7 nM | < 0.5 nM | 10.2 nM | CCc1cc(O)c(F)cc1-c1cc2[nH]ncc2c(NCc2ccccc2N(C)S(C)(=O)=O)n1 [Example 131, N-[2-({[6-(2-Ethyl-5-fluoro-4-hydroxyphenyl)-1H-pyrazolo[4,3-c]pyridin-4-yl]amino}methyl)phenyl]-N-methylmethanesulfonamide]
17 | 113 nM | 316 nM | 29.6 nM | 475 nM | Cc1ccc(NC(=O)c2n[nH]c3cc(-c4cc(F)c(O)cc4CC(F)(F)F)nc(NCc4ccccc4N(C)S(C)(=O)=O)c23)cn1 [Example 76, 6-[5-Fluoro-4-hydroxy-2-(2,2,2-trifluoroethyl)phenyl]-4-({2-[methyl(methylsulfonyl)amino]-benzyl}amino)-N-(6-methylpyridin-3-yl)-1H-pyrazolo[4,3-c]pyridine-3-carboxamide]
18 | 150 nM | 356 nM | 32.9 nM | 491 nM | CN(c1ccccc1CNc1nc(-c2cc(F)c(O)cc2CC(F)(F)F)cc2[nH]nc(-n3cccn3)c12)S(C)(=O)=O [Example 163, N-{2-[({6-[5-Fluoro-4-hydroxy-2-(2,2,2-trifluoroethyl)phenyl]-3-(1H-pyrazol-1-yl)-1H-pyrazolo[4,3-c]pyridin-4-yl}amino)methyl]phenyl}-N-methylmethanesulfonamide]
19 | 23.1 nM | 18.1 nM | 4.6 nM | 130 nM | CCc1cc(O)c(F)cc1-c1cc2[nH]nc(C(N)=O)c2c(NCc2ccccc2N(C)S(=O)(=O)c2ccccc2)n1 [Example 40, 6-(2-Ethyl-5-fluoro-4-hydroxyphenyl)-4-({2-[methyl(phenylsulfonyl)amino]benzyl}amino)-1H-pyrazolo[4,3-c]pyridine-3-carboxamide]
20 | 15 nM | 11.7 nM | 3.4 nM | 76.5 nM | CCc1cc(O)c(F)cc1-c1cc2[nH]nc(-c3ncc[nH]3)c2c(NCc2ccccc2N(C)S(C)(=O)=O)n1 [Example 157, N-[2-({[6-(2-Ethyl-5-fluoro-4-hydroxyphenyl)-3-(1H-imidazol-2-yl)-1H-pyrazolo[4,3-c]pyridin-4-yl]amino}methyl)phenyl]-N-methylmethanesulfonamide]
21 | 23.6 nM | 15.4 nM | 4.1 nM | 90.6 nM | CCc1cc(O)c(F)cc1-c1cc2[nH]nc(-n3cccn3)c2c(NCc2ccccc2N(C)S(C)(=O)=O)n1 [Example 162, N-[2-({[6-(2-Ethyl-5-fluoro-4-hydroxyphenyl)-3-(1H-pyrazol-1-yl)-1H-pyrazolo[4,3-c]pyridin-4-yl]amino}methyl)phenyl]-N-methylmethanesulfonamide]
22 | 9.6 nM | 6.8 nM | 1.9 nM | 47.5 nM | CCc1cc(O)c(F)cc1-c1cc2[nH]nc(C(=O)NC)c2c(NCc2ccccc2N(C)S(=O)(=O)CC)n1 [Example 3, 6-(2-ethyl-5-fluoro-4-hydroxy-phenyl)-4-({2-[(ethylsulfonyl)-(methyl)amino]benzyl}amino)-N-methyl-1H-pyrazolo[4,3-c]pyridine-3-carboxamide]
